Measured values taken from US12404304B1, “Telomerase reverse transcriptase (TERT) expression enhancing compounds and methods for using the same” (Sierra Sciences, LLC, priority 2007, dated 2025).

Assays:
[1] = tested on: human TERT expression (hTERT mRNA); test: Quantitative real-time RT-PCR of hTERT mRNA expression (Ct, transcripts) in compound-treated cells; format: cell-based; settings: quantitative real-time RT-PCR
Summary of the method: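 Read-out is cycle threshold, the cycle at which probe fluorescence released by Taq 5′-nuclease activity crosses a set level; Ct falls as hTERT mRNA rises. cDNA of treated and untreated cells was compared, with starting transcripts quantified against a known-cDNA standard curve.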

viable cells in culture = test: Cell viability assay (CellTiter-Glo Luminescent Cell Viability Assay, ATP quantitation, percent of vehicle control)

| SMILES | Average Number of hTERT Transcripts [1] | Average Cell Viability after 24 Hours (% DMSO) (viable cells in culture) |
| --- | --- | --- |
| COc1ccc(OCC(=O)N/N=C/c2cccc3cccnc23)cc1 [compound 1289] | 21.50 | 84.79 |
| O=C(COc1ccc(Cl)cc1)N/N=C/c1cccc2cccnc12 [compound 1290] | 9.13 | 62.81 |
| CC(Oc1cccc2cccnc12)C(=O)N/N=C/c1cccc2cccnc12 (centres unmarked) [compound 1291] | 47.89 | 77.64 |
| Cn1c(SCC(=O)N/N=C/c2sc3ccccc3c2O)nc2ccccc21 [compound 1292] | 39.11 | 69.51 |
| O=C(N/N=C/c1ccccc1O)/C(=C\c1cccs1)NC(=O)c1ccccc1 [compound 1293] | 37.88 | 89.97 |
| CCCCCC(=O)N/N=C(/C)c1ccccn1 [compound 1294] | 105.99 | 74.63 |
| Cc1cc(NC(=O)C2c3ccccc3Oc3ccccc32)n(-c2nc(C)c(C)c(=O)[nH]2)n1 [compound 1295] | 45.40 | 66.62 |
| CCc1c(C)nc(-n2nc(C)cc2NC(=O)C2c3ccccc3Oc3ccccc32)[nH]c1=O [compound 1296] | 60.31 | 73.20 |
| CCOC(=O)c1nn(-c2ccccc2)c(=O)c2c(NC(=O)c3ccc4c(c3)OCO4)scc12 [compound 1298] | 8.68 | 101.83 |
| CCOC(=O)c1nn(-c2ccccc2)c(=O)c2c(NC(=O)c3c(F)cccc3Cl)scc12 [compound 1299] | 2.95 | 69.64 |
| CCOC(=O)c1nn(-c2ccc(Cl)cc2)c(=O)c2c(NC(=O)c3ccc(F)cc3)scc12 [compound 1300] | 6.98 | 62.52 |
| O=C(Nc1ccc(Cl)c(Cl)c1)Nc1nnc(CSc2ccccc2)s1 [compound 1301] | 65.14 | 63.90 |
| COC(=O)CSc1nnc(NC(=O)c2ccc(Cl)cc2)s1 [compound 1302] | 41.43 | 70.75 |
| CCC(=O)Nc1nnc(SCc2cc(=O)c3cccc(Cl)c3[nH]2)s1 [compound 1303] | 4.51 | 80.90 |
| c1ccc(-c2c(-c3ccccc3)n(Cc3ccco3)c3ncn4nc(-c5ccncc5)nc4c23)cc1 [compound 1304] | 59.37 | 89.74 |
| CCOC(=O)c1cc2ccc(OC(=O)COc3ccc(C)cc3)cc2oc1=O [compound 1307] | 8.66 | 80.83 |
| CCOC(=O)COc1ccc2c(C)cc(=O)oc2c1C [compound 1308] | 3.16 | 90.12 |
| CN(C(=O)c1cc2ccccc2oc1=O)C1(C)CCS(=O)(=O)C1 (centres unmarked) [compound 1309] | 10.58 | 119.29 |
| CCc1cc(=O)oc2c(C)c(OC(=O)c3ccccc3)ccc12 [compound 1310] | 5.00 | 105.11 |
| COc1cc([N+](=O)[O-])cc2cc(C(=O)NCCCN3CCOCC3)c(=O)oc12 [compound 1311] | 4.38 | 92.83 |
| Cc1noc(-c2cc(Br)cc(Br)c2O)n1 [compound 1312] | 51.29 | 67.76 |
| O=C1CC(N2CCN(Cc3ccc(Cl)cc3)CC2)C(=O)N1c1ccccc1 (centres unmarked) [compound 1313] | 7.45 | 112.79 |
| Cc1sc(CO)c(Sc2ccccc2)c1C(=O)O [compound 1314] | 8.82 | 109.57 |
| CC1CCc2c(sc(NC(=O)c3cccnc3)c2C(=O)Nc2cccc(Cl)c2)C1 (centres unmarked) [compound 1315] | 26.20 | 58.86 |
| O=C(Nc1nccs1)c1sc2ccccc2c1Cl [compound 1316] | 13.39 | 73.91 |
| Nc1c(C(=O)Nc2ccc(Cl)c(Cl)c2)sc2nc3c(cc12)CCCC3 [compound 1317] | 10.56 | 88.17 |
| CC(=O)Oc1ccccc1C(=O)Nc1ccc(F)cc1F [compound 1318] | 13.40 | 59.35 |
| CC1=NN(C(=O)c2cc(Br)ccc2O)C(O)(c2ccccc2)C1 (centres unmarked) [compound 1319] | 15.04 | 61.93 |

| SMILES | Average Number of hTERT Transcripts [1] | Average Cell Viability after 24 Hours (% DMSO) (viable cells in culture) |
| --- | --- | --- |
| Cc1ccn2c(-c3csc(Nc4ccc(C(=O)O)cc4)n3)c(C)nc2c1 [compound 1320] | 8.00 | 90.39 |
| COC(=O)C1=C(C)Nc2nnnn2C1c1ccccc1OC (centres unmarked) [compound 1321] | 22.30 | 124.73 |
| COc1ccc(-c2cc3ccccn3c2C)cc1 [compound 1322] | 20.10 | 81.69 |
| Cc1ccc(S(=O)(=O)NC(=O)c2ccccc2O)cc1 [compound 1323] | 11.00 | 121.47 |
| O=C1c2oc3ccccc3c(=O)c2C(c2cccc(OCc3ccccc3)c2)N1c1nccs1 (centres unmarked) [compound 1324] | 8.42 | 57.19 |
| CCn1ncc([N+](=O)[O-])c1C(=O)Nc1sc2c(c1C#N)CCCCCC2 [compound 1325] | 29.36 | 94.20 |
| CCc1ccc(NC2c3ccccc3C(=O)N2Cc2ccc3c(c2)OCO3)cc1 (centres unmarked) [compound 1326] | 8.73 | 86.99 |
| Cc1cc(Br)ccc1NC(=O)Cn1ncc2c(=O)oc3ccccc3c21 [compound 1327] | 4.67 | 101.34 |
| COc1ccc(Br)cc1CNC(=O)Cn1ncc2c(=O)oc3ccccc3c21 [compound 1328] | 5.42 | 71.81 |
| CC1(C(=O)O)CC(=O)N=C2C=CC(Cl)=CN21 (centres unmarked) [compound 1329] | 3.63 | 94.31 |
| COc1cc(C(=O)Nc2ccc(-c3nc4ccccc4[nH]3)cc2)ccc1OC(C)=O [compound 1330] | 3.59 | 97.84 |
| COC(=O)CSc1nnc(-c2sc3ccccc3c2Cl)n1C [compound 1331] | 32.92 | 90.44 |
| C=CCc1c(C)nc(SCC(=O)Nc2cc(Cl)cc(Cl)c2)[nH]c1=O [compound 1332] | 12.68 | 94.78 |
| Cc1ccc(-c2noc(CN3CCOCC3)n2)cc1 [compound 1333] | 3.71 | 96.79 |
| O=C(Nc1cc([N+](=O)[O-])ccc1O)c1cccc(F)c1 [compound 1334] | 31.04 | 75.50 |
| O=[N+]([O-])c1ccc(NS(=O)(=O)c2cccc(C(F)(F)F)c2)cc1 [compound 1335] | 11.78 | 75.24 |
| CC(=O)N1C(=O)C(=O)c2cc(Cl)ccc21 [compound 1336] | 7.64 | 100.05 |
| CCOC(=O)COc1ccc2c(=O)c(-c3ccccc3Cl)c(C)oc2c1C [compound 1337] | 30.15 | 67.33 |
| Cc1ccc(NC(=O)c2cc([N+](=O)[O-])ccc2O)cc1 [compound 1338] | 49.42 | 80.45 |
| O=C(NC(=S)Nc1cc(Cl)cc(Cl)c1)c1cccc(F)c1 [compound 1339] | 7.09 | 68.94 |
| CCC(C)Cn1c(CO)nc2ccccc21 (centres unmarked) [compound 1340] | 4.37 | 106.88 |
| Cc1ccc(N)cc1S(=O)(=O)N1CCCCC1 [compound 1341] | 4.50 | 110.20 |
| CCOC(=O)c1cc(NC(=O)N(C(C)C)C(C)C)c(C)nc1C [compound 1342] | 4.48 | 103.16 |
| O=C(CSc1ncccc1C(=O)O)Nc1ccc(Oc2ccccc2)cc1 [compound 1343] | 4.57 | 103.75 |
| S=C(Nc1ccc(Br)cc1)Nc1cccc(Cl)c1 [compound 1344] | 7.86 | 42.95 |
| S=C(Nc1cccc(Cl)c1)Nc1cc(Cl)ccc1Cl [compound 1345] | 24.88 | 45.42 |
| COC(=O)COc1ccc(NC(=O)CSc2ccc(Cl)cc2)cc1 [compound 1346] | 31.23 | 56.33 |
